This is an account of results in patent US20240190824A1, “INHIBITORS OF TREK (TWIK RELATED K+ CHANNELS) CHANNEL FUNCTION” (ONO PHARMACEUTICAL CO., LTD., priority 2019, published 2024).

For the assay, the target named is human TREK-1 (Homo sapiens (Human), UniProt O95069). As to the kind of experiment: TREK-1 Thallium (Tl+) flux assay. The following applies: CHO-K1 cells stably expressing human TREK-1. The format is cell-based.
Chain of human TREK-1 (O95069 whole entry): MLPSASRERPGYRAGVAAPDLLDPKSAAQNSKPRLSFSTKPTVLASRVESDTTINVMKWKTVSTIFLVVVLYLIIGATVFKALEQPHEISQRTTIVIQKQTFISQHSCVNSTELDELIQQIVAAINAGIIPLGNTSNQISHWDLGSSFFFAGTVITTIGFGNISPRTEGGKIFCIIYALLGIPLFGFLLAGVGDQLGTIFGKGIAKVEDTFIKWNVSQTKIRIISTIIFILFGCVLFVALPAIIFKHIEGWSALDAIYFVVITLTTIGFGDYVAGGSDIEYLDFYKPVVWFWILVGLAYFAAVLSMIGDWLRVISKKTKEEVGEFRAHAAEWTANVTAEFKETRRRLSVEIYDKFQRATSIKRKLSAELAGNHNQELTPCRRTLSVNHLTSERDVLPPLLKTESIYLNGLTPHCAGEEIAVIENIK
The term IC50 denotes the point on the concentration scale where inhibition reaches its midpoint. Compound `CC1CC1C(=O)Nc1ccc(Cl)c(C(=O)Nc2ncc(C#Cc3ccccc3)cc2F)c1` (stereo not shown) [Compound 3, 2-chloro-N-[3-fluoro-5-(2-phenylethynyl)-2-pyridyl]-5-[(2-methylcyclopropanecarbonyl)amino]benzamide] had an IC50 of 70 nM.

Turning to `CCn1ccc(-c2ccc(Cl)c(C(=O)Nc3ncc(C#Cc4ccccc4)cc3C)c2)n1` [Compound 64, 2-chloro-5-(1-ethylpyrazol-3-yl)-N-[3-methyl-5-(2-phenylethynyl)-2-pyridyl]benzamide], the IC50 came to 200 nM.

`O=C(Nc1ncc(C#Cc2ccccc2)cc1F)c1cc(NC(=O)C2COCCO2)ccc1Cl` (stereo not shown) [Compound 10, N-[4-chloro-3-[[3-fluoro-5-(2-phenylethynyl)-2-pyridyl]carbamoyl]phenyl]-1,4-dioxane-2-carboxamide] returned an IC50 of 200 nM.

Consider `Cc1cc(C#Cc2ccccc2)cnc1NC(=O)c1cc(OCC2CCOCC2)ccc1Cl` [Compound 20, 2-chloro-N-[3-methyl-5-(2-phenylethynyl)-2-pyridyl]-5-(tetrahydropyran-4-ylmethoxy)benzamide], for which it took 90 nM to reach half-maximal inhibition (IC50).

Regarding `Cc1ccc(NC(=O)OC(C)(C)C)cc1C(=O)Nc1ncc(C#Cc2ccccc2)cc1C` [Compound 46, tert-butyl N-[4-methyl-3-[[3-methyl-5-(2-phenylethynyl)-2-pyridyl]carbamoyl]phenyl]carbamate], half-maximal inhibition (IC50) required 870 nM.

With `Cc1cc(C#Cc2ccccc2)cnc1NC(=O)c1cc(C#N)ccc1Cl` [Compound 53, 2-chloro-5-cyano-N-(3-methyl-5-(phenylethynyl)pyridin-2-yl)benzamide], inhibition was half-maximal at 810 nM (IC50).

In the case of `Cc1cc(C#Cc2ccccc2)cnc1NC(=O)c1cc(-c2nnco2)ccc1Cl` [Compound 77, 2-chloro-N-[3-methyl-5-(2-phenylethynyl)-2-pyridyl]-5-(1,3,4-oxadiazol-2-yl)benzamide], it took 470 nM to reach half-maximal inhibition (IC50).

In turn, `Cc1cc(C#Cc2ccccc2)cnc1N1Cc2ccc(NC(=O)OC(C)(C)C)cc2C1=O` [Compound 44, tert-butyl N-[2-[3-methyl-5-(2-phenylethynyl)-2-pyridyl]-3-oxo-isoindolin-5-yl]carbamate] registered an IC50 of 580 nM.

As to `Cc1nc(C)c(-c2ccc(Cl)c(C(=O)Nc3ncc(C#Cc4ccccc4)cc3C)c2)s1` [Compound 70, 2-chloro-5-(2,4-dimethylthiazol-5-yl)-N-[3-methyl-5-(2-phenylethynyl)-2-pyridyl]benzamide], the midpoint of inhibition, the IC50, lay at 260 nM.

`Cc1cc(-c2cnn(-c3ccccc3)c2)cnc1NC(=O)c1cc(NC(=O)OC(C)(C)C)ccc1Cl` [Compound 93, tert-butyl N-[4-chloro-3-[[3-methyl-5-(1-phenylpyrazol-4-yl)-2-pyridyl]carbamoyl]phenyl]carbamate] had an IC50 of 190 nM.

`Cc1cc(C#Cc2ccccc2)cnc1NC(=O)c1nc(NC(=O)C2CC2C)ccc1Cl` (stereo not shown) [Compound 33, 3-chloro-6-[(2-methylcyclopropanecarbonyl)amino]-N-[3-methyl-5-(2-phenylethynyl)-2-pyridyl]pyridine-2-carboxamide] registered an IC50 of 290 nM.

With `Cc1cc(C#Cc2ccccc2)cnc1NC(=O)c1cc(-c2cn(C)nc2C)ccc1Cl` [Compound 74, 2-chloro-5-(1,3-dimethylpyrazol-4-yl)-N-[3-methyl-5-(2-phenylethynyl)-2-pyridyl]benzamide], the IC50 came to 410 nM.

`CC(C)(C)OC(=O)Nc1ccc(Cl)c(C(=O)Nc2ncc(-c3cnn(-c4ccc(F)cc4)c3)cc2F)c1` [Compound 92, tert-butyl (4-chloro-3-((3-fluoro-5-(1-(4-fluorophenyl)-1H-pyrazol-4 yl)pyridin-2-yl)carbamoyl)phenyl)carbamate] registered an IC50 of 130 nM.

Turning to `Cc1cc(C#Cc2cccc(F)c2)cnc1NC(=O)c1cc(C(=O)N2CC(C)(O)C2)ccc1Cl` [Compound 18, 2-chloro-N-[5-[2-(3-fluorophenyl)ethynyl]-3-methyl-2-pyridyl]-5-(3-hydroxy-3-methyl-azetidine-1-carbonyl)benzamide], the IC50 came out at 240 nM.

For the compound `Cc1cc(C#Cc2ccccc2)cnc1NC(=O)c1cc(NC(=O)C2CC(C)(O)C2)ccc1Cl` (stereo not shown) [Compound 32, 2-chloro-5-[(3-hydroxy-3-methyl-cyclobutanecarbonyl)amino]-N-[3-methyl-5-(2-phenylethynyl)-2-pyridyl]benzamide], the IC50 is 280 nM.

For the compound `CC(C)(C)OC(=O)Nc1ccc(Cl)c(C(=O)Nc2ncc(C#Cc3ccccc3)cc2F)n1` [Compound 38, tert-butyl N-[5-chloro-6-[[3-fluoro-5-(2-phenylethynyl)-2-pyridyl]carbamoyl]-2-pyridyl]carbamate], the IC50 was 440 nM.

The compound `Cc1noc(-c2ccc(Cl)c(C(=O)Nc3ncc(C#Cc4ccccc4)cc3C)c2)n1` [Compound 63, 2-chloro-5-(3-methyl-1,2,4-oxadiazol-5-yl)-N-[3-methyl-5-(2-phenylethynyl)-2-pyridyl]benzamide] yielded an IC50 of 200 nM.

As to `Cc1cc(C#Cc2ccccc2)cnc1NC(=O)c1cc(NC(=O)OC(C)(C)C)cc(F)c1Cl` [Compound 35, tert-butyl N-[4-chloro-3-fluoro-5-[[3-methyl-5-(2-phenylethynyl)-2-pyridyl]carbamoyl]phenyl]carbamate], the IC50 worked out at 400 nM.

For `Cc1cc(C#Cc2ccccc2)cnc1NC(=O)c1cc(NC(=O)C2CC2)ccc1Cl` [Compound 9, 2-chloro-5-(cyclopropanecarbonylamino)-N-[3-methyl-5-(2-phenylethynyl)-2-pyridyl]benzamide], it took 180 nM to reach half-maximal inhibition (IC50).

Regarding `Cc1nc(C)c(-c2ccc(Cl)c(C(=O)Nc3ncc(C#Cc4ccccc4)cc3F)c2)s1` [Compound 67, 2-chloro-5-(2,4-dimethylthiazol-5-yl)-N-[3-fluoro-5-(2-phenylethynyl)-2-pyridyl]benzamide], half-maximal inhibition (IC50) required 210 nM.

In the case of `Cc1cc(C#Cc2ccccc2)cnc1NC(=O)c1cc(C(=O)N2CC(O)C2)ccc1Cl` [Compound 71, 2-chloro-5-(3-hydroxyazetidine-1-carbonyl)-N-[3-methyl-5-(2-phenylethynyl)-2-pyridyl]benzamide], the midpoint of inhibition, the IC50, lay at 300 nM.

Compound `Cc1cc(C#Cc2ccccc2)cnc1NC(=O)c1cc(OCCN2CCOCC2)ccc1Cl` [Compound 84, 2-chloro-N-[3-methyl-5-(2-phenylethynyl)-2-pyridyl]-5-(2-morpholinoethoxy)benzamide] returned a concentration for half-maximal inhibition (IC50) of 420 nM.

With `Cc1cc(C#Cc2ccccc2)cnc1NC(=O)c1cc(C(=O)NC(C)(C)CO)ccc1Cl` [Compound 17, 4-chloro-N1-(2-hydroxy-1,1-dimethyl-ethyl)-N3-[3-methyl-5-(2-phenylethynyl)-2-pyridyl]benzene-1,3-dicarboxamide], half-maximal inhibition (IC50) required 180 nM.

`Cc1cc(OCc2ccccc2)ccc1NC(=O)c1cc(NC(=O)OC(C)(C)C)ccc1Cl` [Compound 25, tert-butyl (3-((4-(benzyloxy)-2-methylphenyl)carbamoyl)-4-chlorophenyl)carbamate] yielded an IC50 of 460 nM.

In the case of `Cc1cc(C#Cc2ccccc2)cnc1NC(=O)c1cc(-c2cnn(C3CCOC3)c2)ccc1Cl` (stereo not shown) [Compound 66, 2-chloro-N-(3-methyl-5-(phenylethynyl)pyridin-2-yl)-5-(1-(tetrahydrofuran-3-yl)-1H-pyrazol-4-yl)benzamide], the IC50 worked out at 220 nM.
